Data reported in patent US12583871B2, “PRMT5 inhibitors” (MERCK SHARP & DOHME LLC, priority 2019, dated 2026).
Read-outs that look alike come from different tables or passages of the source.

What was measured:
[1] = biological target: T1, PRMT5-MEP50 enzyme complex (Homo sapiens, UniProt O14744); assay: PRMT5-MEP50 Enzyme Methylation Assay; type: biochemical; conditions: recombinant FL-PRMT5-MEP50, biotinylated H4R3(Me1) peptide, 15 μM SAM
T1 construct: 1.25 nM of Full-length (FL)-PRMT5-MEP50 enzyme complex; made in house; host or cells: baculovirus-transfected Sf21 cells
Experimental: PRMT5-MEP50 Enzyme Methylation Assay
PRMT5-MEP50 biochemical assay is a direct measurement of the methylation activity of the enzyme complex on a short peptide substrate derived from the N-terminus of H4 histone. Methylation experiment was performed with recombinant PRMT5-MEP50 protein complex. The assessment of inhibitory effect of small molecules was measured by the effectiveness of the compounds to inhibit this reaction (EC50).
In this assay, the potency (EC50) of each compound was determined from a twenty-point (1:2 serial dilution; top compound concentration of 100000 nM) titration curve using the following outlined procedure. To each well of a white ProxiPlus 384 well-plate, 100 nL of compound (1% DMSO in final assay volume of 10 μL) was dispensed, followed by the addition of 8 μL of 1× assay buffer (50 mM Bicine pH 8.0, 1 mM DTT, 0.004% Tween20, 0.01% BSA) containing 1.25 nM of Full-length (FL)-PRMT5-MEP50 enzyme complex (recombinant proteins from baculovirus-transfected Sf21 cells: FL-PRMT5; MW=[…] and FL-MEP50; MW=38614) and 1 μL of 150 μM S-(5′-Adenosyl)-L-Methionine Chloride (SAM). Plates were sealed and placed in a 37° C. humidified chamber for a 60 minutes pre-incubation with compound. Subsequently, each reaction was initiated by the addition of 1 μL 1× assay buffer containing 750 nM biotinylated H4R3(Me1) peptide. The final reaction in each well of 10 μL consists of 1.0 nM PRMT5-MEP50, 75 nM biotinylated-peptide, and 15 μM SAM. Methylation reactions were allowed to proceed for 150 minutes in a sealed plate at 37° C. Reactions were immediately quenched by the addition of 1 μL of 5% formic acid. Plates were then frozen and shipped to SAMDI™ Tech Inc. to determine the percent conversion from H4R3(Me1) to H4R3(Me2). Dose-response curves were generated by plotting percent effect (% product conversion; Y-axis) vs. Log 10 compound concentrations (X-axis). EC50 values were determined by non-linear regression according to models for sigmoidal (4 parameters) dose-response curves.

[2] = biological target: T2, PRMT5 (symmetric dimethylation of arginine (SDMA) of PRMT5 substrates) in MCF-7 cells (Homo sapiens, UniProt O14744); assay: PRMT5 Cell Target Engagement (TE) Assay; type: cell-based; conditions: 3 days treatment, nuclear SDMA by high content imaging
T2 construct: endogenous in cells; host or cells: MCF-7 cells
Source text: PRMT5 Cell Target Engagement (TE) Assay
The PRMT5 TE assay is a biomarker assay for identifying compounds that inhibit symmetric dimethylation of arginine (SDMA) of PRMT5 substrates. The following substrates have been reported for PRMT5: histone H2A and H4 R3, Histone H3 R2, Histone H3 R8, spliceosome Sm proteins, ribosomal protein RPS10, p53, FEN1, nucleoplasmin, nucleolin, EGFR and EBNA. The assay focuses on detecting symmetrically dimethylated nuclear proteins using high content imaging technology. Detection of the expression of symmetrically dimethylated nuclear proteins is through a mixture of primary rabbit monoclonal antibodies to SDMA (CST 13222), which in turn recognized by an Alexafluor 488 dye-conjugated anti-rabbit IgG secondary antibody. The IN Cell Analyzer 2200 or Opera-Phenix measures nuclear Alexafluor 488 fluorescent dye intensity that is directly related to the level of expression of symmetrically dimethylated nuclear proteins at the single cell level. Nuclear AF488 dye intensities are compared to the mean value for DMSO treated cells (MIN) to report percent of inhibition for each compound-treated well.
In this assay, the cell potency (EC50) of each compound was determined from a ten point (1:3 serial dilution; top compound concentration of 10000 nM) titration curve using the following outlined procedure. Each well of a BD falcon collagen coated black/clear bottom 384-well plate was seeded with 4000 MCF-7 cells in 30 μl media and allowed to attach for 5 h. Media is ATCC-formulated Eagle's Minimum Essential Medium, Catalog No. 30-2003. To make the complete growth medium, the following components were added to the base medium: 0.01 mg/mL human recombinant insulin; fetal bovine serum to a final concentration of 10%. Additional 30 μl of media containing 2× compounds were added to each well. Cells were treated for 3 days in 37° C. CO2 incubator. On day 3, cells were fixed with Cytofix, permeablized with 0.4% Triton-X-100/Cytofix, and washed with D-PBS without Ca/Mg. Cells were blocked with Licor Odessey blocking reagent for 1 h at room temperature, followed by incubation with anti-SDMA (1:1000) antibody at 4° C. overnight. 1° antibody was removed, followed by three washings with DPBS without Ca/Mg and 0.05% Tween20. Hoechst (5 μg/mL), Cell Mask deep stain (1:2000) and Alexa488-conjugated goat anti-rabbit IgG (2 μg/mL) was added for 1 h at room temperature. A final washing step (three washes) was performed before sealing plate for imaging on In Cell Analyzer 2200 or Opera-Phenix. Images from analyzer were uploaded to Columbus (at WP or BOS) for image analysis. IC50 values were determined by 4 parameters robust fit of percent fluorescence units vs. (Log10) compound concentrations.

[3] = only EC50 (4 parameters single site sigmoidal model) or first EC50 of 7 parameters biphasic model, read-out: Enzyme Methylation Assay (EC50)
[4] = second EC50 of 7 parameters biphasic model, read-out: Enzyme Methylation Assay (EC50, nM), second EC50

T1 sequence (O14744 whole entry): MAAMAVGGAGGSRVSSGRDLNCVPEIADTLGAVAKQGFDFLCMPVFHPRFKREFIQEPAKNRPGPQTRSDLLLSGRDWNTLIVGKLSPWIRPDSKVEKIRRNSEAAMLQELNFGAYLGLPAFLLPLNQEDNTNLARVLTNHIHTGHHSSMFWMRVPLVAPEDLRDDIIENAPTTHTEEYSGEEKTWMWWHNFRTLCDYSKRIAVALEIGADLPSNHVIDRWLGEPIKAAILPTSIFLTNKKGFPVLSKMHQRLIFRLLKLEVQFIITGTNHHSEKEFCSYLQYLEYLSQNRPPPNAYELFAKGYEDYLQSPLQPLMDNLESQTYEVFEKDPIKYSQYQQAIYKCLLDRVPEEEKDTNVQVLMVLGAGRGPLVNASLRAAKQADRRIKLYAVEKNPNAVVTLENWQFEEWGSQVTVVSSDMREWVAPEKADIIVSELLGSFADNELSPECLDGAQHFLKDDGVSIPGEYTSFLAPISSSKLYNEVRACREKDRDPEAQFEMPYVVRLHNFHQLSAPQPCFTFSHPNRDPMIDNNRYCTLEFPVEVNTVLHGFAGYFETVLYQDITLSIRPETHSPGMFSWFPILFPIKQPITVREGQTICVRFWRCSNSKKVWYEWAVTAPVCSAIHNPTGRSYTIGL
T1 sequence (Q9BQA1 whole entry partner): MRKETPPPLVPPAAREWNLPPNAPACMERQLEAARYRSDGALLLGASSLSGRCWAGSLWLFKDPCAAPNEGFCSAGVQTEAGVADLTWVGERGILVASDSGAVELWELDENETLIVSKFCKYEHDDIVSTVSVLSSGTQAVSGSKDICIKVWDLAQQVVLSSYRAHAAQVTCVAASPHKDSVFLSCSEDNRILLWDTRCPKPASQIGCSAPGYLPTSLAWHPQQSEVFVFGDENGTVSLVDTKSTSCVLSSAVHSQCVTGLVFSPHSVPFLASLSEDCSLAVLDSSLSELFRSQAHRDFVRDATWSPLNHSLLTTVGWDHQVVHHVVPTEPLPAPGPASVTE
T2 sequence (O14744 whole entry): as the sequence (O14744 whole entry) above
T2 sequence (Q9BQA1 whole entry partner): as the sequence (Q9BQA1 whole entry partner) above

| SMILES | EC50 [1, 3] [nM] | EC50 [2] [nM] | EC50 [1, 4] [nM] |
| --- | --- | --- | --- |
| CO[C@H](C)c1cc(Br)cn2cc(C(=O)N3CC[C@]4(Cc5ccccc5CN4)[C@H](O)C3)nc12 (single isomer, unassigned) [Example 3] | 0.581 | 1.57 | – |
| CO[C@@H](C)c1cc(Br)cn2cc(C(=O)N3CC[C@]4(Cc5ccccc5CN4)[C@H](O)C3)nc12 (single isomer, unassigned) [Example 2] | 0.369 | 2.11 | 114 |
| COCc1cc(C(F)(F)F)cn2cc(C(=O)N3CC[C@]4(Cc5ccccc5CN4)[C@H](O)C3)nc12 [Example 1, ((3R,3′R)-3′-hydroxy-1,4-dihydro-1′H,2H-spiro[isoquinoline-3,4′-piperidin]-1′-yl)[8-(methoxymethyl)-6-(trifluoromethyl)imidazo[1,2-a]pyridin-2-yl]methanone] | 0.525 | 6.23 | 224 |
| Cc1nc2nc(C(=O)N3CC[C@]4(Cc5ccccc5CN4)[C@H](O)C3)cn2cc1Br [Example 4, (6-bromo-7-methylimidazo[1,2-a]pyrimidin-2-yl)[(3R,3′R)-3′-hydroxy-1,4-dihydro-1′H,2H-spiro[isoquinoline-3,4′-piperidin]-1′-yl]methanone] | 0.652 | 14 | 280 |
| O=C(c1cn2cc(C3CC3)cnc2n1)N1CC[C@]2(Cc3ccccc3CN2)[C@H](O)C1 [Example 5, (6-cyclopropylimidazo[1,2-a]pyrimidin-2-yl)[(3R,3′R)-3′-hydroxy-1,4-dihydro-1′H,2H-spiro[isoquinoline-3,4′-piperidin]-1′-yl]methanone] | 0.216 | 4.42 | 72.4 |
